Source: patent US20170066717A1, “NEW PHENYLAZETIDINECARBOXYLATE OR -CARBOXAMIDE COMPOUNDS” (INVENTIVA, priority 2014, published 2017)

Key:
NURR-1/RXRγ = target: T1, NURR-1/RXRγ (Homo sapiens, UniProt P48443); assay: Transactivation test, NURR-1-Gal4/RXRγ, luciferase reporter in Cos-7 cells; format: cell-based; settings: for Emax: COS-7, induction level relative to reference XCT0135908 at 2×10^−5 M (=100%), read-out: hNurr1_RXRgFL Emax (%); for EC50: Cos-7 cells, NURR-1-Gal4/RXRγ, luciferase reporter, read-out: hNurr1_RXRgFL EC50
T1 construct: expressed in transfected cells; host or cells: Cos-7 cells
T1 sequence (P48443 whole entry, the tested form may be a part): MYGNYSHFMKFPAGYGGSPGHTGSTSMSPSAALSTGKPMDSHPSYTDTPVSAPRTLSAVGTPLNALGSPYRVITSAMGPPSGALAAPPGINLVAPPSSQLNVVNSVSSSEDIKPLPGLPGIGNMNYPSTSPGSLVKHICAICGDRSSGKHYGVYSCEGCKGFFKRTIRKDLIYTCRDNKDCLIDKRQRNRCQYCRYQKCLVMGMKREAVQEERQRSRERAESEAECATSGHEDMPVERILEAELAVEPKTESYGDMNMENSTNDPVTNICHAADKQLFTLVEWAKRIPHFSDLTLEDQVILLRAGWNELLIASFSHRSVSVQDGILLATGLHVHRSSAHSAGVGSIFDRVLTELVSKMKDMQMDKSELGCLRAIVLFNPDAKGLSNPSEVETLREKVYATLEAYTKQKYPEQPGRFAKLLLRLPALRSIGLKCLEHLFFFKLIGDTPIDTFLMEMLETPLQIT
T1 sequence (P43354 whole entry partner, the tested form may be a part): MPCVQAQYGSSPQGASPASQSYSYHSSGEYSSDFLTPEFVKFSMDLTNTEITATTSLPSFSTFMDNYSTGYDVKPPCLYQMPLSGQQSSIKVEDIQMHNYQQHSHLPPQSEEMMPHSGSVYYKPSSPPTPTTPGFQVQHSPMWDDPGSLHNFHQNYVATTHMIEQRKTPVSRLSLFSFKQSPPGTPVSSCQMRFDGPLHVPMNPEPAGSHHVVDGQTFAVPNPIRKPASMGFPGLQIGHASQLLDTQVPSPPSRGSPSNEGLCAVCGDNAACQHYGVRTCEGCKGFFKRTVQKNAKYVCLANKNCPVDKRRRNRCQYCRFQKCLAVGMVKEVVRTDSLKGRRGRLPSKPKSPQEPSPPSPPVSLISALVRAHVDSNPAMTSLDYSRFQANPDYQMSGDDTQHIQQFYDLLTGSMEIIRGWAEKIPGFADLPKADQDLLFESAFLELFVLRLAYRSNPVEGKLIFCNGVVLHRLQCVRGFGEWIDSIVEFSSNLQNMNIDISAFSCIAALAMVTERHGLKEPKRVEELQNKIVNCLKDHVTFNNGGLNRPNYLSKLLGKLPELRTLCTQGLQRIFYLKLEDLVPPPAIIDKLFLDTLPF
T1 sequence (P04386 1-147 partner limits assumed): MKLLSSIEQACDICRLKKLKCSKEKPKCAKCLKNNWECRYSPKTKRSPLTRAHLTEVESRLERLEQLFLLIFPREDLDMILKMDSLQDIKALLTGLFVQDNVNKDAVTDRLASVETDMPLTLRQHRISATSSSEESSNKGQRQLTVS

[1] = Brain penetration in rats after intravenous administration; format: in vivo; settings: rat; for Kp at 4 h: male, Wistar, intravenous, 4 mg/kg, ratio of Cmax brain to Cmax plasma after the 4 hours of infusion, rats, read-out: Kp (partition coefficient between the brain and the plasma); for Cmax at 4 h: male Wistar rats, 4 mg/kg iv infusion into the jugular vein for 4 hours, plasma at end of infusion
Outline: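 Male Wistar rats (250-300 g, fed, n=4) received test compound by 4-hour jugular vein infusion at 4 mg/kg in 2% Cremophor EL/0.9% NaCl. At the end of infusion, plasma and brain homogenate were analysed by LC-MS/MS; Kp is the brain-to-plasma concentration ratio after 4 hours.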

[2] = Plasma pharmacokinetics in mice after oral administration; format: in vivo; settings: mouse, male C57/Bl6 mice, oral 10 mg/kg; for AUC: sampling 15 min to 7 h, log-linear trapezoidal method, read-out: AUCplasma; for Cmax: suspension in 1% methylcellulose/0.1% Poloxamer 188
Outline: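 Male C57/B16 mice (25-30 g, fed, 9 per dose) received 10 mg/kg by oral gavage as a suspension in 1% methylcellulose 400 cps/0.1% Poloxamer 188/water. Plasma was sampled at 15 min, 30 min, 1 h, 3 h and 7 h and quantified by LC-MS/MS after protein precipitation. Parameters were derived non-compartmentally, with AUC by the log-linear trapezoidal method.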

| SMILES | Emax (NURR-1/RXRγ) [%] | EC50 (NURR-1/RXRγ) [nM] | Kp at 4 h [1] | Cmax at 4 h [1] [ng/mL] | AUC [2] [ng·h/mL] | Cmax [2] [ng/mL] |
| --- | --- | --- | --- | --- | --- | --- |
| CC1(C)CCC(C)(C)c2cc(-c3cccc(N4CC(C(=O)O)C4)c3)ccc21 [Example 10, 1-[5-(1,1,4,4-tetrametyltetralin-6-yl)phenyl]azetidine-3-carboxylic acid] | 85 | 24 | 1.28 | 4300 | 25700 | 8760 |
| CC(C)CC1CN(c2cccc(N3CC(C(=O)O)C3)c2)c2ccc(C(F)(F)F)cc2O1 (stereo not drawn) [Example 118, 1-[3-[2-isobutyl-7-(trilfuoromethyl)-2,3-dihydro-1,4-benzoxazin-4-yl]phenyl]azetidine-3-carboxylic acid] | 80 | 47 | 0.35 | 3480 | 9820 | 4600 |
